# Measurements reported in the METLIN SMRT retention time set (Domingo-Almenara et al. 2019).
# Assay: gradient 5% acetonitrile 3 min, to 50% in 2 min, to 85% in 15 min, held 3 min, 100 µL/min
# Conditions: column: Zorbax Extend-C18 2.1 x 50 mm; eluents: water / acetonitrile, 0.1% formic acid
# How it was run: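 Data were gathered over 3 months by HPLC coupled to a quadrupole time-of-flight mass spectrometer, operated in positive and negative ionization mode. Mixtures of ~100 pure standards ran on a Zorbax Extend-C18 column (2.1 × 50 mm, 1.8 μm) at 100 μL/min, with water and acetonitrile each containing 0.1% formic acid and dead and dwell volumes of 40 μL and 900 μL. Retention time was read from adduct peaks picked by computer and checked manually.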
row,SMILES,RP-LC retention time
1,CN(C)c1ccc(-c2noc(C3CC(=O)N(c4ccc5c(c4)OCCO5)C3)n2)cc1 (stereo not given),920 s
2,CCCCC(=O)N1CCCC(C)C1 (stereo not given),878 s
3,COc1ccc(NS(=O)(=O)c2cc(-c3cc(C(F)(F)F)[nH]n3)sc2C)cc1Cl,995 s
4,Cc1noc(-c2cccn2Cc2cccc(F)c2)n1,962 s
5,COc1ccc(NC(=O)c2cn3c(n2)CSCC3)cc1Cl,737 s
6,CCCn1cc(CCNS(=O)(=O)c2ccc(Cl)s2)c2cccnc21,899 s
7,COCCn1ccc2nc(C)c(C(=O)Nc3ccc4c(c3)OCCO4)cc2c1=O,679 s
8,COc1cccc(CN2CCC3(CC2)NCCc2c3[nH]c3ccc(OC)cc23)c1,589 s
9,CC(C)NC(=O)c1ccc(C(C)C)cc1,918 s
10,CC(=O)Nc1ccc(OCC(O)CNC(C)(C)CC(C)(C)C)cc1 (stereo not given),562 s
11,O=C1OC(Cc2ccccc2)C(c2ccccc2)C1=O (stereo not given),976 s
12,COc1ccc(Nc2ccc3c(=O)c(-c4ccccc4OC)coc3c2)c(OC)c1,940 s
13,CCCn1cc(CCNC(=O)C2CC2)c2cccnc21,621 s
14,O=C1CC2OCC=C3CN4CC[C@]56c7ccccc7N1C5[C@H]2[C@H]3C[C@H]46 (stereo not given in full),583 s
15,CC1Oc2ccc(-c3csc(NC(=O)c4cccnc4)n3)cc2NC1=O (stereo not given),704 s
16,COc1ccc(C2(C(=O)N3CCn4c(C)nnc4C3)CC2)cc1,584 s
17,CSc1ccccc1NC(=O)C(=O)NN1CCN(C)CC1,559 s
18,Cc1ccc(NC(=O)Cn2ncc3c(c2=O)N(CC2CC2)C(=O)CS3)cc1F,928 s
19,O=C(NCc1ccccc1F)C1CCCN(c2nn3c(=O)c4c(nc3s2)CCCC4)C1 (stereo not given),762 s
20,CCn1c(=O)c2cc(C(N)=O)nn2c2ccccc21,653 s
21,CCCCCCOc1ccccc1C(N)=O,1040 s
22,Cn1c(C2CCCN(S(C)(=O)=O)C2)nn(CC(=O)NC2CCCCC2)c1=O (stereo not given),606 s
23,CS(=O)(=O)c1ccc(-c2cccc(NS(=O)(=O)c3ccc4c(c3)CCCC4)c2)nn1,855 s
24,CCOC(=O)c1c(C)n(CC(=O)OC)c2ccc(OC)cc12,904 s
25,Cc1ccc(NC(=O)C2CCN(S(=O)(=O)c3cc(-c4noc(C5CC5)n4)ccc3C)CC2)nc1,868 s
26,CCCC(=O)Nc1ccc2c(c1)CN(C(=O)Cc1ccc(F)cc1)C(C(=O)N(C)C)C2 (stereo not given),672 s
27,Nc1c(C(=O)NCC2CCCO2)c2nc3ccccc3nc2n1C1CCCC1 (stereo not given),1070 s

row,SMILES,RP-LC retention time
1,CCOC(=O)c1ccc(NC(=O)c2ccc(=O)n(C)n2)cc1,693 s
2,COC(=O)c1ccc(NC(=O)NCCn2c(C(F)(F)F)nc3cccnc32)cc1,706 s
3,Fc1ccccc1-c1noc(-c2nc(-c3ccccc3F)no2)n1,1140 s
4,COc1cc(NC(=O)c2ccccc2)c(OC)cc1NC(=O)C=C(C)C,887 s
5,O=C(Cn1c(Cc2ccccc2)nc2ccccc21)N1CCCCC1,667 s
6,COc1cccc(CNC(=O)N2CCCC2c2c(C)noc2C)c1 (stereo not given),733 s
7,Cc1ccc(C)c(NS(=O)(=O)c2cc3n(c2)CCN(C(C)C)C3=O)c1,794 s
8,Cc1ccc2c(=O)c3c([nH]c2c1C)CCN(CC(=O)Nc1cccc(Cl)c1C)C3,661 s
9,CS(=O)(=O)N1CCc2ccc(C(=O)NCCN3CCC(N4CCCCC4)CC3)cc21,583 s
10,COc1ccccc1/C=C/c1nc(C#N)c(NCCN(C)C)o1,648 s
11,Cc1cnc(C(=O)N2CC(n3cc(COc4ccncc4)nn3)C2)cn1,553 s
12,CCOC(=O)c1noc2ncnc(N(CCN(C)C)Cc3ccccc3)c12,656 s
13,Cc1cc(C(=O)NCCN2CCN(C(=O)c3cccs3)CC2)c(C)o1,563 s
14,CCOc1ccc(OCC)c(NS(=O)(=O)c2cc(-c3c(C)noc3NC(C)=O)ccc2OC)c1,864 s
15,COc1ccc(OC)c(Nc2c(-c3ccc(C(=O)O)cc3)nc3cnccn23)c1,709 s
16,CC1=C(C(=O)N2CCOCC2)C(c2cccc(Br)c2)C2=C(CCCC2=O)N1 (stereo not given),664 s
17,CCc1ccc(NC(=O)Cn2c(=O)n(-c3cccc(C)c3)c(=O)c3c2cc(C)n3C)cc1,645 s
18,CCOc1ccccc1CN1CCO[C@@H](COC)[C@@H]1c1ccccc1,699 s
19,COc1cccc(S(=O)(=O)N2CC(F)(F)C[C@H]2CN2CCc3ccccc3C2)c1,807 s
20,CCCN1C(=O)c2c(C(=O)NCc3cccc(Cl)c3)ncn2CC1(C)C(=O)NC1CCCC1 (stereo not given),858 s
21,CCCC(NC(=O)c1cc(OC)c(OC)c(OC)c1)C(=O)Nc1nc2ccccc2[nH]1 (stereo not given),688 s
22,CCOC(=O)c1c(C)[nH]c(C)c1S(=O)(=O)N1CCC(C(=O)NCCN2CCCCCC2)CC1,592 s
23,Cc1ccc(NC(=O)c2cn(C)nc2S(=O)(=O)N2CCSCC2)cc1C,987 s
24,Cc1ccc(-c2cc3c(N4CCCC(C(=O)NC5CCCCC5)C4)nccn3n2)c(C)c1 (stereo not given),1010 s
25,CCOc1ccc(CN2CCC3(CCC3O)CC2)cc1OCC (stereo not given),598 s
26,CCn1ccc(C(=O)N2CCC(c3nc(-c4ccncc4)no3)C2)n1 (stereo not given),640 s
27,CC(C)CC(=O)N1CCc2cc(CNC(=O)c3ccnn3C)ccc21,754 s

# The next lines start with the values.
row,RP-LC retention time,SMILES
1,585 s,O=C(Cn1c(=O)n(-c2ccccc2)c2ncccc21)NCCN1CCOCC1
2,939 s,CSc1cccc(NC(=O)Cn2cccc(-c3nc(-c4ccc(F)cc4)no3)c2=O)c1
3,811 s,Cc1ccc(N2CCC(NC(=O)Nc3ccccc3)C2=O)cc1 (stereo not given)
4,848 s,O=C(NCCc1cccs1)C1CCCN(C(=O)c2cccn2-c2cccnc2)C1 (stereo not given)
5,745 s,O=c1c(NC2CCCCC2)nc2ccncc2n1Cc1ccccc1
6,983 s,CC1(C(=O)NCc2ccccc2)CCCN(C(=O)Nc2cccc(Br)c2)C1 (stereo not given)
7,927 s,O=C(Nc1ccccc1C(=O)N1CCN(c2ccccc2F)CC1)C1=CSCCO1
8,681 s,COc1cccc(N2CCN(C(=O)c3cc(NC(=O)C(C)C)cc4nc(C)ccc34)CC2)c1
9,695 s,O=C(CN1CCN(c2ccc(Cl)cc2)C1=O)N1CCN(C(=O)c2ccco2)CC1
10,574 s,O=C(NCCCN1CCCC1)c1ccc(-c2ccc(N3CCSCC3)nc2)cc1
11,934 s,CCc1ccc(Nc2nc(C(=O)NC3CCCC3)nc3ccccc23)cc1
12,706 s,COc1cccc(OC)c1C(=O)Nc1ccc2c(c1)Sc1ncccc1C(=O)N2C
13,858 s,CCCn1cc(C2=CCN(C(=O)Nc3ccc(OC)cc3)CC2)c2cccnc21
14,1100 s,Cc1nn(C(C)C(=O)Nc2ccc(F)cc2F)c(=O)c2c(-n3cccc3)n(-c3ccccc3)nc12 (stereo not given)
15,616 s,CCN(Cc1ccccc1)Cc1cc(=O)n2cc(Cl)ccc2n1
16,1180 s,CCOc1ccc(CNC(=O)c2cc3c(=O)n(CC)c4ccccc4n3n2)cc1OC
17,611 s,Cc1ccn2cc(-c3cccc(S(=O)(=O)N4CCCC4)c3)nc2c1
18,789 s,O=C(c1cc(Sc2cccc(Cl)c2)nc2ccccc12)N1CCN(c2ccccn2)CC1

row,RP-LC retention time,SMILES
1,779 s,O=C(NCC1CCCO1)c1ccc(-c2cnc(Oc3ccccc3)nc2)cc1 (stereo not given)
2,1090 s,CCCCCNC(=O)C1CCCN(c2ncc(-c3ccccc3)cn2)C1 (stereo not given)
3,991 s,Cc1nc2cc(-c3noc(-c4ccccn4)n3)ccc2n(C2CCCC2)c1=O
4,1260 s,CCc1ccccc1NC(=O)C1CCCN(c2nc3c(s2)c(C)nn3-c2cccc(F)c2)C1 (stereo not given)
5,653 s,Cc1cc(C)c2c(N3CCOCC3)nc(C(=O)N3CCN(c4ccccc4)CC3)nc2n1
6,1380 s,Cc1nn(-c2nc(CC(=O)Nc3nc(-c4ccccc4)cs3)cs2)c(C)c1Cc1ccccc1
7,580 s,O=C(c1ccc(CS(=O)c2ccc(Br)cc2)o1)N1CCN(c2ccccn2)CC1 (stereo not given)
8,709 s,CCn1c(=O)n(CCN2CCOCC2)c(=O)c2cnc(-c3ccc(Cl)cc3)nc21
9,1250 s,COc1cccc(-n2c(=O)c(C(=O)Nc3cccc(F)c3)c(O)c3cccnc32)c1
10,702 s,Cn1cnc(S(=O)(=O)N2CCCN(S(=O)(=O)c3cccc4nsnc34)CCNC(=O)CC2c2ccccc2)c1 (stereo not given)
11,540 s,COc1ccc(C(O)CN2CCN(c3ccccn3)CC2)cc1 (stereo not given)
12,1160 s,Cc1cccc(-c2noc(CN3C(=O)COc4cc(Cl)ccc43)n2)c1
13,1140 s,CCn1c(=O)c(N2CCCC(C(=O)NCc3cc(Br)ccc3OC)C2)nc2ccccc21 (stereo not given)
14,659 s,COCc1nc2cccnc2n1C1CCN(C(=O)Nc2cc(OC)c(OC)c(OC)c2)CC1
15,640 s,COC(=O)c1cnc(N2CCN(c3ccccn3)CC2)c2ccccc12
16,941 s,O=C(CCN1C(=O)c2ccccc2S1(=O)=O)Nc1nc(-c2ccccc2)cs1
17,595 s,Nc1cccc(-c2nccnc2N2CCCC2)c1
18,630 s,O=C(CCn1c(N2CCCCC2)nc2ccccc2c1=O)N1CCN(c2ccccn2)CC1
